Marks after values point to notes of the source that are not given here. Square brackets hold non-standard residues; d marks the D form. Peptide text beside a SMILES is read from it. * marks the point of attachment. Phe(4-Cl) = N[C@@H](Cc1ccc(Cl)cc1)C(=O)O; Dip = N[C@H](C(=O)O)C(c1ccccc1)c1ccccc1; hArg = N=C(N)NCCCC[C@H](N)C(=O)O; Nle = CCCC[C@H](N)C(=O)O; Octanoyl = CCCCCCCC(=O)*; Abu = CC[C@H](N)C(=O)O; PhAc = O=C(Cc1ccccc1)*
How the values were obtained:
[1] = test system: PC-3 human prostate cancer xenografts; test: PC-3 xenografts in nude mice, Experiment 3: tumor growth; format: in vivo; conditions: for antitumor effect on PC-3 tumors (in words): 10 μg/day; for Tumor volume (mm^3) Final / Tumor volume doubling time / Tumor weight / Tumor volume Final (% inhibition) / Tumor weight (% inhibition): 10 μg/day s.c., 28 days; for Tumor volume Final (% inhibition) / Tumor weight (% inhibition): vs control; for Tumor volume (mm^3) Initial: at start of treatment
Experimental: Male nude mice were implanted s.c. with 3 mm^3 pieces of PC-3 human hormone-independent prostate cancer tissue on both flanks. When tumors reached a volume of approximately 65 mm^3, the mice were divided into 7 experimental groups with 8 to 9 animals in each group and received single daily injections for 28 days as follows: 1. Control (vehicle solution); 2. JV-1-38 (10 μg/day s.c.); 3. Peptide 35 (10 μg/day s.c.); 4. Peptide 36 (10 μg/day s.c.); 5. Peptide 37 (10 μd/day s.c.); 6. Peptide 39 (10 μg/day s.c.); 7. Peptide 41 (10 μg/day s.c.). Tumor volumes were measured twice a week. The experiment was ended on day 28 by sacrificing the mice under Isofurane anesthesia. Resulting tumors were cleaned, weighed, and snapfrozen until further analyses. Trunk blood was collected from the abdominal aorta and serum was separated for RIA measurement of IGF-I. Statistical analyses of the measurement results were done by ANOVA followed by Fisher test; data are presented as the means±S.E.

[2] = test system: GH-RH receptor isoforms on membrane fractions of human PC-3 prostate tumors; format: binding; conditions: for binding affinities to the tumoral receptors for GH-RH (in words): general statement
Text: Ligand competition assays with ^125I-labeled GH-RH antagonist JV-1-42 were used to determine the binding affinities of GH-RH analogs to the GH-RH receptor isoforms on membrane fractions of human PC-3 prostate tumors. The methods used have been described in detail (Halmos G, Schally A V, Varga J L, Plonowski A, Rekasi Z, Czompoly T, Proc Natl Acad Sci USA 97: 10555-10560, 2000; Halmos G, Schally A V, Czompoly T, Krupa M, Varga J L, Rekasi Z, J Clin Endocrinol Metab 87: 4707-4714, 2002), hereby incorporated by reference. Briefly, radioiodinated derivatives of JV-142 are prepared by the chloramine-T method. PC-3 tumors, grown as xenografts in nude mice, are used to prepare crude membranes. PC-3 membrane homogenates are incubated with [^125I]JV-142 and increasing concentrations (10^−12 to 10^−6 M) of nonradioactive antagonist peptides as competitors. The pellet is separated by centrifugation and counted for radioactivity in a gamma-counter. The final binding affinities are estimated by K1 (dissociation constant of the inhibitor-receptor complex) and are determined by the Ligand PC and McPherson computer programs of Munson and Rodbard (P. J. Munson and D. Rodbard, Anal. Biochem. […]: 220-239, 1980). Relative affinities (R.A.) compared to reference peptides such as JV-1-36 or JV-1-38, are calculated as the ratio of K1 of the reference peptide to the K, of the tested GH-RH antagonist.

[3] = test system: hGH-RH(1-29)NH2 induced GH release; test: Inhibition of GH release in superfused rat pituitary system; format: cell-based; conditions: for GH response (% of control) 0 min / GH response (% of control) 30 min / GH response (% of control) 60 min / GH response (% of control) 90 min / GH response (% of control) 120 min: antagonist 30 nM; for GH response (% of control) 0 min: 1 nM hGH-RH(1-29)NH2 at 0 min; for GH response (% of control) 30 min: 1 nM hGH-RH(1-29)NH2 at 30 min; for GH response (% of control) 60 min: 1 nM hGH-RH(1-29)NH2 at 60 min; for GH response (% of control) 90 min: 1 nM hGH-RH(1-29)NH2 at 90 min; for GH response (% of control) 120 min: 1 nM hGH-RH(1-29)NH2 at 120 min; for endocrine antagonistic potency: inhibition of the GH release stimulated by hGH-RH(1-29)NH2 (in words): general statement, in vitro and in vivo
Outline: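 Dispersed rat pituitary cells in superfusion were preincubated 9 min with analog at various concentrations, then stimulated with 1 nM hGH-RH(1-29)NH2 for 3 min, repeated at 30, 60, 90, 120 min to gauge duration. GH measured by double-antibody RIA; net integrated responses expressed as percent of the initial 1 nM GH-RH response.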

Molecule | antitumor effect on PC-3 tumors (in words) [1] | Tumor volume (mm^3) Final [1] | Tumor volume doubling time [1] | Tumor weight [1] | Tumor volume Final (% inhibition) [1] | Tumor weight (% inhibition) [1] | Tumor volume (mm^3) Initial [1] | binding affinities to the tumoral receptors for GH-RH (in words) [2] | GH response (% of control) 0 min [3] | GH response (% of control) 30 min [3] | GH response (% of control) 60 min [3] | GH response (% of control) 90 min [3] | GH response (% of control) 120 min [3] | Relative Affinities (R.A.) to membrane receptors on PC-3 human prostate cancers [2] | endocrine antagonistic potency: inhibition of the GH release stimulated by hGH-RH(1-29)NH2 (in words) [3]
[PhAc-Tyr^1, D-Arg^2, Phe(pCl)^6, Har^9, Phe(pNO2)^10, Abu^15, Nle^27, D-Arg^28, Har^29]hGH-RH(1-29)NH2 [Peptide 39] | more potent antitumor effect than reference peptide JV-1-38 | 271 ± 109** mm^3 | 19.6 ± 2.10 days | 247 ± 55.4 mg | (66%) | (65%) | 66.7 ± 11.2 mm^3 | extremely high binding affinities | 63 % of control | 54 % of control | 36 % of control | 37 % of control | 36 % of control |  | 
CCCC[C@H](NC(=O)[C@@H](NC(=O)[C@H](CC(=O)O)NC(=O)[C@H](CCC(N)=O)NC(=O)[C@H](CC(C)C)NC(=O)[C@H](CC(C)C)NC(=O)[C@H](CCCCN)NC(=O)[C@H](CCCNC(=N)N)NC(=O)[C@H](C)NC(=O)[C@H](CO)NC(=O)[C@H](CC(C)C)NC(=O)[C@H](CCC(N)=O)NC(=O)[C@H](CC)NC(=O)[C@H](CC(C)C)NC(=O)[C@@H](NC(=O)[C@H](CCCCN)NC(=O)[C@H](CCCNC(=N)N)NC(=O)[C@@H](NC(=O)[C@H](CCCCNC(=N)N)NC(=O)[C@H](CC(N)=O)NC(=O)[C@@H](NC(=O)[C@H](Cc1ccc(Cl)cc1)NC(=O)[C@@H](NC(=O)[C@H](C)NC(=O)[C@H](CC(=O)O)NC(=O)[C@@H](CCCNC(=N)N)NC(=O)[C@H](Cc1ccc(O)cc1)NC(=O)Cc1ccccc1)[C@@H](C)CC)[C@@H](C)O)C(c1ccccc1)c1ccccc1)C(C)C)[C@@H](C)CC)C(=O)N[C@H](CCCNC(=N)N)C(=O)N[C@@H](CCCCNC(=N)N)C(N)=O [Peptide 36, [PhAc-Tyr^1, D-Arg^2, Phe(pCl)^6, Har^9, Dip^10, Abu^15, Nle^27, D-Arg^28, Har^29]hGH-RH(1-29)NH2] (PhAc-Y[dR]DAI[Phe(4-Cl)]TN[hArg][Dip]RKVL[Abu]QLSARKLLQDI[Nle][dR][hArg]-NH2) | more potent antitumor effect than reference peptide JV-1-38 | 214 ± 72.6** mm^3 | 18.7 ± 3.83 days | 361 ± 89.6 mg | (76%) | (48%) | 68.0 ± 11.7 mm^3 | extremely high binding affinities | 104 % of control | 90 % of control | 112 % of control | 97 % of control | 120 % of control |  | 
CCCCCCCC(=O)N[C@@H](Cc1ccc(O)cc1)C(=O)N[C@H](CCCNC(=N)N)C(=O)N[C@@H](CC(=O)O)C(=O)N[C@@H](C)C(=O)N[C@H](C(=O)N[C@@H](Cc1ccc(Cl)cc1)C(=O)N[C@H](C(=O)N[C@@H](CC(N)=O)C(=O)N[C@@H](CCCNC(=N)N)C(=O)N[C@@H](Cc1ccc(O)cc1)C(=O)N[C@@H](CCCNC(=N)N)C(=O)N[C@@H](CCCCN)C(=O)N[C@H](C(=O)N[C@@H](CC(C)C)C(=O)N[C@@H](CC)C(=O)N[C@@H](CCC(N)=O)C(=O)N[C@@H](CC(C)C)C(=O)N[C@@H](CO)C(=O)N[C@@H](C)C(=O)N[C@@H](CCCNC(=N)N)C(=O)N[C@@H](CCCCN)C(=O)N[C@@H](CC(C)C)C(=O)N[C@@H](CC(C)C)C(=O)N[C@@H](CCC(N)=O)C(=O)N[C@@H](CC(=O)O)C(=O)N[C@H](C(=O)N[C@@H](CCCC)C(=O)N[C@H](CCCNC(=N)N)C(=O)N[C@@H](CCCCNC(=N)N)C(N)=O)[C@@H](C)CC)C(C)C)[C@@H](C)O)[C@@H](C)CC [Peptide 4, [CH3(CH2)6CO-Tyr^1, D-Arg^2, Phe(pCl)^6, Arg^9, Abu^15, Nle^27, D-Arg^28, Har^29]hGH-RH(1-29)NH2] (Octanoyl-Y[dR]DAI[Phe(4-Cl)]TNRYRKVL[Abu]QLSARKLLQDI[Nle][dR][hArg]-NH2) |  |  |  |  |  |  |  | extremely high binding affinities | 5 % of control | 0 % of control | 12 % of control | 8 % of control | 18 % of control | 53 | high endocrine antagonistic potencies
CCCC[C@H](NC(=O)[C@@H](NC(=O)[C@H](CC(=O)O)NC(=O)[C@H](CCC(N)=O)NC(=O)[C@H](CC(C)C)NC(=O)[C@H](CC(C)C)NC(=O)[C@H](CCCCN)NC(=O)[C@H](CCCNC(=N)N)NC(=O)[C@H](C)NC(=O)[C@H](CO)NC(=O)[C@H](CC(C)C)NC(=O)[C@H](CCC(N)=O)NC(=O)[C@H](CC)NC(=O)[C@H](CC(C)C)NC(=O)[C@@H](NC(=O)[C@H](CCCCN)NC(=O)[C@H](CCCNC(=N)N)NC(=O)[C@H](Cc1ccc(OC)cc1)NC(=O)[C@H](Cc1c[nH]cn1)NC(=O)[C@H](CC(N)=O)NC(=O)[C@@H](NC(=O)[C@H](Cc1ccc(Cl)cc1)NC(=O)[C@@H](NC(=O)[C@H](C)NC(=O)[C@H](CC(=O)O)NC(=O)[C@@H](CCCNC(=N)N)NC(=O)[C@H](Cc1ccc(O)cc1)NC(=O)Cc1ccccc1)[C@@H](C)CC)[C@@H](C)O)C(C)C)[C@@H](C)CC)C(=O)N[C@H](CCCNC(=N)N)C(=O)N[C@@H](CCCCNC(=N)N)C(N)=O [Peptide 69, [PhAc-Tyr^1, D-Arg^2, Phe(pCl)^6, His^9, Tyr(Me)^10, Abu^15, Nle^27, D-Arg^28, Har^29]hGH-RH(1-29)NH2] (PhAc-Y[dR]DAI[Phe(4-Cl)]TNHY(Me)RKVL[Abu]QLSARKLLQDI[Nle][dR][hArg]-NH2) |  |  |  |  |  |  |  | extremely high binding affinities | 9 % of control | 12 % of control | 18 % of control | 18 % of control | 25 % of control |  | high endocrine antagonistic potencies
